Patent US20110287045A1, “Enhanced immune response against infections” (priority 2010, published 2011)
Entries after “also recorded” stand apart in the source; their conditions may differ.

Experiments:
[1] = tested on: platelets; assay: Inhibitor pre-treatment before agonist-induced platelet activation (flow cytometry); assay type: cell-based; conditions: for inhibition of CCL5-induced platelet activation / inhibition of Tat-induced platelet activation: pre-treatment 37° C. 30 minutes, SB328437 3 nM, EGTA 100 μM, PGE1 5 μM; for inhibition of CCL5-induced platelet activation: CCL5 10 μg/ml; for inhibition of Tat-induced platelet activation: Tat 20 ng/ml
Experimental: (§1) Gel-filtered human or mouse platelets were prepared from platelet-rich plasma obtained from blood collected in 0.38% sodium citrate via heart puncture. 1×10^7gel-filtered platelets were incubated under different stimulation conditions at 37° C. for 30 minutes. For in vitro platelet activation, Tat 20 ng/ml, CCL5 10 μg/ml, or control Ad18-66 20 ng/ml were used. To test the role of chemokine receptor CCR3, calcium flux and cAMP in Tat-induced platelet activation, CCR3 inhibitor SB328437 3 nM, calcium flux inhibitor EGTA 100 μM and prostaglandin E1 (PGE1, a cAMP elevator) 5 μM were used separately to treat platelets at 37° C. for 30 minutes before incubation with Tat, CCL5 or control as above. To test the role of β3 integrin, platelets from β3 integrin knock out mice were incubated with Tat, CCL5, thrombin, and control. Treated platelets were then stained with anti-CD154-FITC and anti-CD62P-PE antibody on ice for one hour. Fluorescent-labeled platelets were measured by flow cytometry (FACScan, Becton-Dickinson, Calif.).

[2] = molecular target: integrin αVβ3 (Homo sapiens, UniProt P05106+P06756); conditions: read-out: dissociation constants (Kd), integrin αVβ3; cited from earlier work
integrin αVβ3, sequence (P06756 31-889 limits assumed): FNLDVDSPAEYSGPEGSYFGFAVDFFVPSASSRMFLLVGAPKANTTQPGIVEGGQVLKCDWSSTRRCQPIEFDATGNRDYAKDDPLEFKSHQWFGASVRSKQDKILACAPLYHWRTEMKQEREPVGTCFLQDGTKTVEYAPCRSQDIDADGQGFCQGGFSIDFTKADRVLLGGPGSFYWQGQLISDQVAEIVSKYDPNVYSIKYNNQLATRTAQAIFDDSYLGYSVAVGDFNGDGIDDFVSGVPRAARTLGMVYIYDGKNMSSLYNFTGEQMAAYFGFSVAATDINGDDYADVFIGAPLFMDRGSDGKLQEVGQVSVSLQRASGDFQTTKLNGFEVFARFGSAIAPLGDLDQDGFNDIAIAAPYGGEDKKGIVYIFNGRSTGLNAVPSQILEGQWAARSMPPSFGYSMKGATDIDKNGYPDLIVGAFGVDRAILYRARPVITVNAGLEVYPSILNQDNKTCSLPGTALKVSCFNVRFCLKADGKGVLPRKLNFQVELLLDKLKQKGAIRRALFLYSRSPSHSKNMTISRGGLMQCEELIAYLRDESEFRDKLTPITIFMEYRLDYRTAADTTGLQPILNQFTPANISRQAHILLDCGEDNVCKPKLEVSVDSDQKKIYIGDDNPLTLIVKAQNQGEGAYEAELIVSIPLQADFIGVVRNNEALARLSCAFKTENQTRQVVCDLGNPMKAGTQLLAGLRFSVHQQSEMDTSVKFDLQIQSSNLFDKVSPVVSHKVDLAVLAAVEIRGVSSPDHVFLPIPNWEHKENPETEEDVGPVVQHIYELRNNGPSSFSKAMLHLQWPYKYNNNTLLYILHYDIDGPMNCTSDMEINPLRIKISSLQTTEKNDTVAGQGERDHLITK
integrin αVβ3, sequence (P06756 891-1048 partner limits assumed): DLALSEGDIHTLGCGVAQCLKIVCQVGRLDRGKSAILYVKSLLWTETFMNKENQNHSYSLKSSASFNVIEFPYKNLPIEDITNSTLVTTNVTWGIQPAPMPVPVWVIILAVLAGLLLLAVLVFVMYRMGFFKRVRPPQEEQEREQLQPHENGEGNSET
integrin αVβ3, sequence (P05106 27-788): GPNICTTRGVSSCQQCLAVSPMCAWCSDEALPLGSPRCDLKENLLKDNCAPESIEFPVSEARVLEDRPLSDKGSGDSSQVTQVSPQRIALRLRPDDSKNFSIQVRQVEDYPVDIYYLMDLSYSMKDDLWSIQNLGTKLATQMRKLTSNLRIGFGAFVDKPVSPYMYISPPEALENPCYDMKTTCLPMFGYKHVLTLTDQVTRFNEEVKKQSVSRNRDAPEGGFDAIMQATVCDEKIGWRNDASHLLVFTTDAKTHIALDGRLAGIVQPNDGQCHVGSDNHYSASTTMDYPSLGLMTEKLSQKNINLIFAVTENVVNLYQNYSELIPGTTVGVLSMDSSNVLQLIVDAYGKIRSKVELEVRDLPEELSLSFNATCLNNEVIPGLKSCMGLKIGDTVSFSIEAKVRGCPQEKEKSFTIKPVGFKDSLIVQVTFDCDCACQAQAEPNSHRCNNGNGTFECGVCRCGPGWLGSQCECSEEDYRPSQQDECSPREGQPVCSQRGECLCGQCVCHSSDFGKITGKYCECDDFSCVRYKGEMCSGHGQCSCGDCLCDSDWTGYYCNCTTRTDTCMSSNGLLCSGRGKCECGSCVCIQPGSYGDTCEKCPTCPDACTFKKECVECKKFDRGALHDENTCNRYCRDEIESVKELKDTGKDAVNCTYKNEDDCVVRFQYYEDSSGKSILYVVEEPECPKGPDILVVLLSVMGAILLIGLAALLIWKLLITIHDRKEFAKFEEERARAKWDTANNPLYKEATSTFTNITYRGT

[3] = tested on: platelets from integrin β3 knockout mice; assay: Flow cytometry assay of platelet activation, platelets from integrin β3 knockout mice; assay type: cell-based, mouse; conditions: β3−/− gel-filtered platelets
Experimental: as §1

O=C(O)CN(CCOCCOCCN(CC(=O)O)CC(=O)O)CC(=O)O [EGTA]
inhibition of CCL5-induced platelet activation [1]: completely inhibited; also recorded: completely blocks
inhibition of Tat-induced platelet activation [1]: completely inhibited

CCCCC[C@H](O)/C=C/[C@H]1[C@H](O)CC(=O)[C@@H]1CCCCCCC(=O)O [PGE1, prostaglandin E1]
inhibition of CCL5-induced platelet activation [1]: partially inhibited
inhibition of CCL5-induced platelet activation ([1]; listed as prostaglandin E1 (PGE1)): partially blocks
inhibition of Tat-induced platelet activation [1]: No significant inhibition

COC(=O)[C@H](Cc1ccc([N+](=O)[O-])cc1)NC(=O)c1cccc2ccccc12 [SB328437]
inhibition of thrombin-induced platelet activation ([1]; SB328437 pre-treatment, FIG. 9 in β3−/− platelets): did not inhibit; also recorded: do not inhibit
inhibition of CCL5-induced platelet activation [1]: completely inhibited
inhibition of Tat-induced platelet activation [1]: completely inhibited

fibrinogen
Kd [2]: 27 nM

thrombin
platelet activation in integrin β3 deficient mouse platelets [3]: still induces platelet activation

vitronectin: integrin αVβ3 ligand, literature comparator
Kd [2]: 64 nM
